From BindingDB's records for doi:10.1016/j.bioorg.2015.08.001 (Universiti Teknologi Mara (Uitm), 2015) come the findings set out here.

The target in this assay is Carbonic anhydrase 2 (Bos taurus, UniProt P00921). Briefly: Carbonic Anhydrase (CA) II Inhibition Assay. Conditions: pH 7.2. On the procedure: This was assay performed using buffer containing Tris and HEPES at the pH of 7.2-7.9 and a total concentration of 20 mM. 96-well plates were filled with 140 µL of Tris-HEPES solution, 20 µL of bovine erythrocyte carbonic anhydrase II solution (0.1-0.2 mg/2000 mL), and 20 µL of 0.7 mM para-nitrophenyl acetate (diluted in ethanol). Test compounds were incubated at 25-28 °C for 15 min prior to addition of para-nitrophenyl acetate, which starts the reaction. The reaction was allowed to take place for 30 min at 25-28 °C. All compounds tested in triplicate at different concentration. Amount of product that forms during the reaction monitored at 400 nm after 30 min.
Sequence of Carbonic anhydrase 2 (P00921 whole entry): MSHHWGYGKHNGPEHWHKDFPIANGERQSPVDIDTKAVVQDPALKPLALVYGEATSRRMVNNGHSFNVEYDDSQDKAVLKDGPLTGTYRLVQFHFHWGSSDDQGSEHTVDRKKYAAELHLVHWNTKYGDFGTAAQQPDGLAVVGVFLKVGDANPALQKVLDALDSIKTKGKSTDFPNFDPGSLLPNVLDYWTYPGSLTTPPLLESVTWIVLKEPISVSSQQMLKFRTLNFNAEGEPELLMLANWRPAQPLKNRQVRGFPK
In general, IC50 refers to the concentration that gives 50% inhibition. Compound `S=C(Nc1ccc(C(c2c[nH]c3ccccc23)c2c[nH]c3ccccc23)cc1)Nc1cccc(Br)c1` registered an IC50 of 131 µM.

Compound `Cc1cccc2c(C(c3ccc(NC(=S)Nc4ccc([N+](=O)[O-])cc4)cc3)c3c[nH]c4c(C)cccc34)c[nH]c12` [1-(4-(Bis(7-methyl-1H-indol-3-yl)methyl)phenyl)-3-(4-nitrophenyl)thiourea (3u)] showed an IC50 of 44.1 µM. As for `O=[N+]([O-])c1ccc(NC(=S)Nc2cccc(C(c3c[nH]c4ccccc34)c3c[nH]c4ccccc34)c2)cc1` [1-(4-Nitrophenyl)-3-(3-(di(1H-indol-3-yl)methyl)phenyl)thiourea (4d)], the figure is 32.9 µM; as for `CCOC(=O)NC(=S)Nc1ccc(C(c2c[nH]c3ccc(Br)cc23)c2c[nH]c3ccc(Br)cc23)cc1` [Name not given], 70.4 µM.

For `CCOC(=O)NC(=S)Nc1ccc(C(c2c[nH]c3ccc(Cl)cc23)c2c[nH]c3ccc(Cl)cc23)cc1` [Name not given], it took 137 µM to reach half-maximal inhibition (IC50). `O=[N+]([O-])c1ccc(NC(=S)Nc2ccc(C(c3c[nH]c4ccc(Br)cc34)c3c[nH]c4ccc(Br)cc34)cc2)cc1` [Name not given] gave an IC50 of 32.3 µM. Turning to `O=[N+]([O-])c1ccc(NC(=S)Nc2ccc(C(c3c[nH]c4ccc(Cl)cc34)c3c[nH]c4ccc(Cl)cc34)cc2)cc1` [Name not given], the IC50 amounted to 39.7 µM. Turning to `O=[N+]([O-])c1ccc(NC(=S)Nc2ccc(C(c3c[nH]c4ccccc34)c3c[nH]c4ccccc34)cc2)cc1` [Name not given], the IC50 amounted to 45.9 µM. Take `S=C(Nc1ccc(C(c2c[nH]c3ccc(Br)cc23)c2c[nH]c3ccc(Br)cc23)cc1)Nc1cc(Cl)ccc1Cl` [Name not given]: inhibition was half-maximal at 33 µM (IC50). As for `S=C(Nc1ccc(C(c2c[nH]c3ccc(Br)cc23)c2c[nH]c3ccc(Br)cc23)cc1)Nc1cccc(Br)c1` [Name not given], the figure is 30.1 µM; as for `S=C(Nc1ccc(C(c2c[nH]c3ccc(Br)cc23)c2c[nH]c3ccc(Br)cc23)cc1)Nc1cccc(Cl)c1` [Name not given], 42.9 µM. Take `S=C(Nc1ccc(C(c2c[nH]c3ccc(Cl)cc23)c2c[nH]c3ccc(Cl)cc23)cc1)Nc1cc(Cl)ccc1Cl` [Name not given]: the midpoint of inhibition, the IC50, lay at 139 µM.

`S=C(Nc1ccc(C(c2c[nH]c3ccc(Cl)cc23)c2c[nH]c3ccc(Cl)cc23)cc1)Nc1cccc(Cl)c1` [Name not given] had an IC50 of 54.4 µM. Next, `S=C(Nc1ccc(C(c2c[nH]c3ccccc23)c2c[nH]c3ccccc23)cc1)Nc1cc(Cl)ccc1Cl` [Name not given]: 68.3 µM; `S=C(Nc1ccc(C(c2c[nH]c3ccccc23)c2c[nH]c3ccccc23)cc1)Nc1cccc(Cl)c1` [Name not given]: 112 µM.
